Reference: ChEMBL document CHEMBL1201862, “PubChem BioAssay data set” (2004)
The source made the active and inactive calls.

What was measured:
[1] = Counterscreen for IDE inhibitors: Luminescence-based cell-based high throughput dose response assay to identify compounds that are cytotoxic to HEK cells. [Related pubchem assays: 434962 (Primary screen (IDE inhibitors in singlicate)), 449730 (Counterscreen (Cytotoxicity in triplicate)), 435028 (Confirmation (IDE inhibitors in triplicate)) …; type: functional; details: HEK293
Insulin-degrading enzyme = target: T1, Insulin-degrading enzyme (Homo sapiens, UniProt P14735); assay: Dose Response: Fluorescence polarization-based cell-based high throughput dose response assay for inhibitors of insulin-degrading enzyme (IDE). [Related pubchem assays: 434962 (Primary screen (IDE inhibitors in singlicate)), 449730 (Counterscreen (Cytotoxicity in triplicate)), 435028 (Confirmation (IDE inhibitors in triplicate)), 434984 (Summary …; type: functional
T1 sequence (P14735 whole entry): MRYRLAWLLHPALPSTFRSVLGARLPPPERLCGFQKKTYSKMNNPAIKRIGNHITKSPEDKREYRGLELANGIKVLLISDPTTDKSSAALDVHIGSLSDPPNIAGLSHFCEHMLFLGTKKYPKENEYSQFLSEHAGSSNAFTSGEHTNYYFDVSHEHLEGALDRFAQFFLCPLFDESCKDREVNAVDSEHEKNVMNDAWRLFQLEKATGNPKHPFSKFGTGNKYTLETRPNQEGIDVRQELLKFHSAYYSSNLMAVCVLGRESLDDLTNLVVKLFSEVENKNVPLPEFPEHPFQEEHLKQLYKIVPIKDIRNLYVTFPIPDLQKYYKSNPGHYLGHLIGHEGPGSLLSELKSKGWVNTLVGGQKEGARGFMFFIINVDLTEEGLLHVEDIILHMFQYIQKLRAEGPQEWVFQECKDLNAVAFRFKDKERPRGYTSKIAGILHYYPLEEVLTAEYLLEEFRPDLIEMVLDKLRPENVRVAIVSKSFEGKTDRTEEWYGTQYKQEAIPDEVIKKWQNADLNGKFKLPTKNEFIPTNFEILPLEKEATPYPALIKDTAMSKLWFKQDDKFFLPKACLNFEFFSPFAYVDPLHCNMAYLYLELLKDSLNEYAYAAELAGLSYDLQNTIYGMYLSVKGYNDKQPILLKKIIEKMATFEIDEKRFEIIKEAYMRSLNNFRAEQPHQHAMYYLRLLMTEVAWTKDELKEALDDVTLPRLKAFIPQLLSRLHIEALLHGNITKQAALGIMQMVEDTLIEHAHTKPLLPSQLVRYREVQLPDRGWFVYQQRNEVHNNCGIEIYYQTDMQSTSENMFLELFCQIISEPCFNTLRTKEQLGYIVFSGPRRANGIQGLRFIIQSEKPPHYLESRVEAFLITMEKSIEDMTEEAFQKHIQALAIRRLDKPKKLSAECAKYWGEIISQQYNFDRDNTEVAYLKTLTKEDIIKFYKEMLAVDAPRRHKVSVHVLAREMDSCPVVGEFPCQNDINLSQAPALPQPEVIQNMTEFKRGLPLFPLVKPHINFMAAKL

[2] = target: T2, Sentrin-specific protease 1 (Homo sapiens, UniProt Q9P0U3); assay: potency of human SENP1 inhibitors, dose response, biochemical, kinetic FRET (AID 651697); type: functional; details: read-out: IC50_Mean
T2 sequence (Q9P0U3 whole entry): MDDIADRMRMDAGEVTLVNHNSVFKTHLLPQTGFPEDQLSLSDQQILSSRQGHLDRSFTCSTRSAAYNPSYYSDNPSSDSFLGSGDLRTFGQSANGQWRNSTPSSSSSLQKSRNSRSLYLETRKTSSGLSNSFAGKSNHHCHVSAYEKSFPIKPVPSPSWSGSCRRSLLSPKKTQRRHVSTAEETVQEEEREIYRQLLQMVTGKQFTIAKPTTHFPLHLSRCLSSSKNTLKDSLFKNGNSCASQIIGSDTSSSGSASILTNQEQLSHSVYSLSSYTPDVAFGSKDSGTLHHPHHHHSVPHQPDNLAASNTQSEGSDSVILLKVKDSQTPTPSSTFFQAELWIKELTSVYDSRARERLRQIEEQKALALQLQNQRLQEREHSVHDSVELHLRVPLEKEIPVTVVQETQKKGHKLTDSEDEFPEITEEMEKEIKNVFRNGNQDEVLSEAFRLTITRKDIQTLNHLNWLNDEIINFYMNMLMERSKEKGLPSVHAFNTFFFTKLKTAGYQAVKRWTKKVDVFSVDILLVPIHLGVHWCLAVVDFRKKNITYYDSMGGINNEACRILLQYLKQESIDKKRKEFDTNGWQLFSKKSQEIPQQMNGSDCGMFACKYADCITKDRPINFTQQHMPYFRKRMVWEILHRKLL

[3] = target: T2, Sentrin-specific protease 1; assay: Dose response confirmation of small molecule inhibitors of the catalytic domain of the SUMO protease, SENP1 in a FRET assay.; type: functional; details: read-out: IC50_Mean
Beta-galactosidase = Beta-galactosidase (Escherichia coli, UniProt Q8VNN2); assay: Dose response counterscreen for EBI2 assay utilizing the enzyme, b-galactosidase.; type: functional
Beta-galactosidase, sequence (Q8VNN2 whole entry): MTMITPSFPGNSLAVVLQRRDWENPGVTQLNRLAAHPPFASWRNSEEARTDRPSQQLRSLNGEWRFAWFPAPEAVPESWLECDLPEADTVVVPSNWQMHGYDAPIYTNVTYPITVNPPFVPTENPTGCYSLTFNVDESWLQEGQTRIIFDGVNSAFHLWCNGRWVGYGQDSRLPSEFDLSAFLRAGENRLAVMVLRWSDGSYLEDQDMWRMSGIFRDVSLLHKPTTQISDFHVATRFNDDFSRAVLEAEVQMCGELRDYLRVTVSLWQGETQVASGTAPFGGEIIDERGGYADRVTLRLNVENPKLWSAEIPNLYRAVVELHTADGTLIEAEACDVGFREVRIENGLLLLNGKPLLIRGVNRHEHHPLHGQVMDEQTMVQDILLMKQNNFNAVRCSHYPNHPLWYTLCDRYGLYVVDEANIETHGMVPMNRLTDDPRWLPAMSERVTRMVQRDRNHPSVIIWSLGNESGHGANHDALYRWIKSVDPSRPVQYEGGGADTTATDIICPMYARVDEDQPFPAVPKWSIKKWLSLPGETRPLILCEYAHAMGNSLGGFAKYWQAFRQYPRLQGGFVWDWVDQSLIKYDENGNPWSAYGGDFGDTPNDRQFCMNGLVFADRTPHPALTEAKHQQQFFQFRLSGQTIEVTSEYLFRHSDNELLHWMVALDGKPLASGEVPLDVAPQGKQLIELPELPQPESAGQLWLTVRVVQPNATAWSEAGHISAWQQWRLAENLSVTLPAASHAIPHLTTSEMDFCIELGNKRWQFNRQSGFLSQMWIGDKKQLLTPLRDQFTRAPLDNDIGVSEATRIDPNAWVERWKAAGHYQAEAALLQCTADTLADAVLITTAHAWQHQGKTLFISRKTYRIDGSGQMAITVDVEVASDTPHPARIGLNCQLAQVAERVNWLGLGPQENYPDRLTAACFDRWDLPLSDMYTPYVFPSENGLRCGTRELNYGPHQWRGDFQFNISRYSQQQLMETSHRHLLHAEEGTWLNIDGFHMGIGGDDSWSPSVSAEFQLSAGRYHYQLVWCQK

Large T antigen = Large T antigen (Simian virus 40, UniProt P03070); type: functional, Betapolyomavirus macacae;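 also: Confirmatory-stage PubChem screen for compounds that inhibit SV40 T antigen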
Large T antigen, sequence (P03070 whole entry): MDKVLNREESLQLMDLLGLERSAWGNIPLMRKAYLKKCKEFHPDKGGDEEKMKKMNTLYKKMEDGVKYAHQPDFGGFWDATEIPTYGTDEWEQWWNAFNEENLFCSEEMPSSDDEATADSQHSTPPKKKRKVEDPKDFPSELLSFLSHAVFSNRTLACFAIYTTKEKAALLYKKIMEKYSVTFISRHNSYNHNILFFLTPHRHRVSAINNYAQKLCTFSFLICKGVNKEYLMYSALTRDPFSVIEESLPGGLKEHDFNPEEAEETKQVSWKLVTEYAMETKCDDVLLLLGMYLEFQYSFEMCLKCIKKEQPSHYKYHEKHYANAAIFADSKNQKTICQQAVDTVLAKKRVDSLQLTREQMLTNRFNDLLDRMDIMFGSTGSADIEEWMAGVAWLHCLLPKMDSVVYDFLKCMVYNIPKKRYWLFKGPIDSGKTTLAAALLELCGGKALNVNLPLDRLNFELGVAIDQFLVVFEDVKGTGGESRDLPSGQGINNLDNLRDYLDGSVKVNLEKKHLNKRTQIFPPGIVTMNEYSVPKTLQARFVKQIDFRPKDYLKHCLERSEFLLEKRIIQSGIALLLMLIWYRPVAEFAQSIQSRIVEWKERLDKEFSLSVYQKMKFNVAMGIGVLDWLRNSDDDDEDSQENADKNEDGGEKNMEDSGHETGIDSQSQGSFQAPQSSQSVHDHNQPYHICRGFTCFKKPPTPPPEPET

[4] = target: Intestinal-type alkaline phosphatase (Mus musculus, UniProt P24822); assay: PubChem AID 488785; type: functional
Intestinal-type alkaline phosphatase (Mus musculus, UniProt P24822), sequence (P24822 whole entry): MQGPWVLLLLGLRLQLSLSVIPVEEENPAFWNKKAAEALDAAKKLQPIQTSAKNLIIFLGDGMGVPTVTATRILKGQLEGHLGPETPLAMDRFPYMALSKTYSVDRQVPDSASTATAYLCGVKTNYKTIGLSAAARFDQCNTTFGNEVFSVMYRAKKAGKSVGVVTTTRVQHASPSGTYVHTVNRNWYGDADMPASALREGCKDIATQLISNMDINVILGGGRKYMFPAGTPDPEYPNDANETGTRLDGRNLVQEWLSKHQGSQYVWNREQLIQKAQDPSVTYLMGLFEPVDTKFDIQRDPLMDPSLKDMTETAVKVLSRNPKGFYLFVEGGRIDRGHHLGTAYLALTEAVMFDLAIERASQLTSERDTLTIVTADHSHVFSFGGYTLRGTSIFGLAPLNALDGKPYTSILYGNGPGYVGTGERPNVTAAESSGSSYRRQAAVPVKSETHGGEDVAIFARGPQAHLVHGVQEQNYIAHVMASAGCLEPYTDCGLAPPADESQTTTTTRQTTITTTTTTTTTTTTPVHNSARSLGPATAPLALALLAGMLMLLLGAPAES

[5] = target: T3, Alkaline phosphatase, tissue-nonspecific isozyme (Homo sapiens, UniProt P05186); assay: TNAP enzyme inhibition by screening hits, dose response, selectivity assay for mouse IAP inhibitor project, biochemical, human TNAP, uHTS hits (AID 488906); type: functional
T3 sequence (P05186 whole entry): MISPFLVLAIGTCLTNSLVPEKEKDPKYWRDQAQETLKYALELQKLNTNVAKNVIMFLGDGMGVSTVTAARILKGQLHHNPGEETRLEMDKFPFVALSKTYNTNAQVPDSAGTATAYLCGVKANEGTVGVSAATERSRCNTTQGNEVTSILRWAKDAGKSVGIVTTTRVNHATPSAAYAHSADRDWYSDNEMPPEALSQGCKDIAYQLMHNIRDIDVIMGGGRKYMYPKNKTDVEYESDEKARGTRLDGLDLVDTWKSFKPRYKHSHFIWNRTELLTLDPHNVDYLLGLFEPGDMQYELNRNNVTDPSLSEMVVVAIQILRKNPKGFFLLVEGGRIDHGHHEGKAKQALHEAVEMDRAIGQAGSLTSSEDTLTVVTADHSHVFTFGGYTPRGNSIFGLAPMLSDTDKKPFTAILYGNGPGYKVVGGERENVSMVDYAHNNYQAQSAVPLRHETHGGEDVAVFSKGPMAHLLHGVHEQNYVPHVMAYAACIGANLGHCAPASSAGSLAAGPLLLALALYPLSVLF

[6] = target: Intestinal-type alkaline phosphatase (Homo sapiens, UniProt P09923); assay: inhibition of human intestinal alkaline phosphatase – biochemical, dose response (AID 488876); type: functional
Intestinal-type alkaline phosphatase (Homo sapiens, UniProt P09923), sequence (P09923 whole entry): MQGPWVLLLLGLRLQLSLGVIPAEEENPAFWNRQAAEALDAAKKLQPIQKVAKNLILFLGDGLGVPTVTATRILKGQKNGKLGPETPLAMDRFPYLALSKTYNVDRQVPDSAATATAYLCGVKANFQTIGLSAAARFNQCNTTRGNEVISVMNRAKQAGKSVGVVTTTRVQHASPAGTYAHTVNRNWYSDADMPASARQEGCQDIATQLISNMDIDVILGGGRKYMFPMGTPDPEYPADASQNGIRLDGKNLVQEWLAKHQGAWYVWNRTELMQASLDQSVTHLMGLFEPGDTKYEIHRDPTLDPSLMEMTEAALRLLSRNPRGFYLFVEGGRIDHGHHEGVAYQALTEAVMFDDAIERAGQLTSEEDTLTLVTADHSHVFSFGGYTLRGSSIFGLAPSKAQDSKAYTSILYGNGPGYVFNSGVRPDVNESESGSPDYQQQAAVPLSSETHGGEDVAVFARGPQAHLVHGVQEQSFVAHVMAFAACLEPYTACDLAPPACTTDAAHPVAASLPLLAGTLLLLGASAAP

Vero = Vero cell cytotoxicity, cytotoxicity control for flavivirus capping enzyme inhibitors (AID 588742); type: functional; details: Chlorocebus sabaeus
Genome polyprotein = Genome polyprotein (dengue virus type 2, UniProt P29990); assay: Dengue-2 NS5 methyltransferase inhibitors, primary screen, biochemical, confirmation dose response (AID 588689); type: functional
Genome polyprotein, sequence (P29990 2492-3391 limits assumed): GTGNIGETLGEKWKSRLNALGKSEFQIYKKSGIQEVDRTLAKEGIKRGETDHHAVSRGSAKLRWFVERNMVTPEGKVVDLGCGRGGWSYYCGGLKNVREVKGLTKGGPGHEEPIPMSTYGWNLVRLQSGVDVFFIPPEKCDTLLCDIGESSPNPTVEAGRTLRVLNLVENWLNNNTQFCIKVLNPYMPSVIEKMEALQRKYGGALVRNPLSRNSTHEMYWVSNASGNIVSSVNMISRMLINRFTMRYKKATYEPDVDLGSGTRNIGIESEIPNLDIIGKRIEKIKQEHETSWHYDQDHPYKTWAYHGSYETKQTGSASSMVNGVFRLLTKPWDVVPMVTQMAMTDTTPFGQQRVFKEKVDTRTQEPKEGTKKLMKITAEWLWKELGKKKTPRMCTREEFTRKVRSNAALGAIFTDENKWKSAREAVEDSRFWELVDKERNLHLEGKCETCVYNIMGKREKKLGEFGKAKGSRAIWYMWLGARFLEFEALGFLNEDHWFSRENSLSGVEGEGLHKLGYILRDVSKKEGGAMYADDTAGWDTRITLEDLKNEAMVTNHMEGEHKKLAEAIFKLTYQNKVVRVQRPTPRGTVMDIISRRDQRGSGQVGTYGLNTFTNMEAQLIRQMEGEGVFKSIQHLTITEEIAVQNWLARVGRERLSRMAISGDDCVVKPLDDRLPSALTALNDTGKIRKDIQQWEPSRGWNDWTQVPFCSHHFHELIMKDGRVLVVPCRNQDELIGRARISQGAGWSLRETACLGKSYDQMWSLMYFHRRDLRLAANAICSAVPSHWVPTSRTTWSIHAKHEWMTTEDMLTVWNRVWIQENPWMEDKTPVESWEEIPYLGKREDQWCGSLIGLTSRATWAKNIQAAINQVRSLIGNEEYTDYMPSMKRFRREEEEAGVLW

[7] = Shn3 3'UTR reporter inhibitors, dose response, cell-based, Clone20 osteoblasts, firefly luciferase, cherry-picked (AID 624132); type: functional;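 also: firefly luciferase luminescence from reporter carrying the Shn3 3'UTR in osteoblasts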
[8] = control 3'UTR Renilla luciferase suppression, dose response, counter-screen for Shn3 inhibitor project, cell-based, Clone20-Shn3RL, cherry-picked (AID 624133); type: functional
Caspase-6 = target: T4, Caspase-6 (Homo sapiens, UniProt P55212); assay: human caspase-6 inhibitors, dose response, biochemical, VEID-R110 fluorescence, cherry-pick (AID 720632)
T4 sequence (P55212 whole entry): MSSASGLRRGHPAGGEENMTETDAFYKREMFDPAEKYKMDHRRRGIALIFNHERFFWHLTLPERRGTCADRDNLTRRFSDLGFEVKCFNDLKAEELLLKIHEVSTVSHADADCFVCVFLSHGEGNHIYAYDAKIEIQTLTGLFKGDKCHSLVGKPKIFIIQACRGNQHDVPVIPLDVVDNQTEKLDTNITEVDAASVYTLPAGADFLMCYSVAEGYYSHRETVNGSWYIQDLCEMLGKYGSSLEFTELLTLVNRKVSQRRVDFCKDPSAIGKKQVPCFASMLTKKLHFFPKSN

[9] = target: Histone-lysine N-methyltransferase NSD2 (Homo sapiens, UniProt O96028); type: biochemical
Histone-lysine N-methyltransferase NSD2, sequence (O96028 whole entry): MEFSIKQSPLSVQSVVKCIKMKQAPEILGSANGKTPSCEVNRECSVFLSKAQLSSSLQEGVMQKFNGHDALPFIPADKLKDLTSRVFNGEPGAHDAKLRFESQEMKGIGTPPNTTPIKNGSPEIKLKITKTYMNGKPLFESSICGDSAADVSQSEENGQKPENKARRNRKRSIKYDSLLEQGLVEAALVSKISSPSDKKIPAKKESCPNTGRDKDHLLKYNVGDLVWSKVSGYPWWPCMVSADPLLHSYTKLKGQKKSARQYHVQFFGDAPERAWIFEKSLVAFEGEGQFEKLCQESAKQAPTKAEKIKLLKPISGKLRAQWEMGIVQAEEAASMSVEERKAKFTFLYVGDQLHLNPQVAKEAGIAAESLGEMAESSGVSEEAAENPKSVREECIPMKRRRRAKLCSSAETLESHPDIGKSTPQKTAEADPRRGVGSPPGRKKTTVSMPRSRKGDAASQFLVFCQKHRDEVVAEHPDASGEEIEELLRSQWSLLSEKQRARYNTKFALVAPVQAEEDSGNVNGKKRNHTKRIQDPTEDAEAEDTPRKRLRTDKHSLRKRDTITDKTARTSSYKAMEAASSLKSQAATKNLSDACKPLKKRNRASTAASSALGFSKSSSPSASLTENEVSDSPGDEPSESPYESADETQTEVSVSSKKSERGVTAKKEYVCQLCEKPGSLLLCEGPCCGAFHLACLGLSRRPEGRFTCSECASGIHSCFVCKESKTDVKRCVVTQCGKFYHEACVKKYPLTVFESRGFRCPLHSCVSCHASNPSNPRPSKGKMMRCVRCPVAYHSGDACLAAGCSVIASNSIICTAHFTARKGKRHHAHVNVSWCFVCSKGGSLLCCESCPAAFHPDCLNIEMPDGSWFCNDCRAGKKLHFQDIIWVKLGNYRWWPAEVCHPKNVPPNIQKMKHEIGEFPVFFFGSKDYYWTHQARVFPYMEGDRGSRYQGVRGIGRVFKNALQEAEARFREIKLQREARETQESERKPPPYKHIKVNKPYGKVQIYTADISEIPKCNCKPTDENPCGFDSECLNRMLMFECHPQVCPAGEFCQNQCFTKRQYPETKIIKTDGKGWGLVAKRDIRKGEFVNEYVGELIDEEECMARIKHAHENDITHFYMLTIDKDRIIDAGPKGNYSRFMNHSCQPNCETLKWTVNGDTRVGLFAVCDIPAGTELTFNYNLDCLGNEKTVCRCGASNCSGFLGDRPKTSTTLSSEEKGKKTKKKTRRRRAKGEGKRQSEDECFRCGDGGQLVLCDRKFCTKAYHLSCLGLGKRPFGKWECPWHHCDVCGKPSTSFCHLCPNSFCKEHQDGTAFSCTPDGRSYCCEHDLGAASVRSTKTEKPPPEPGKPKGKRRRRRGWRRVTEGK

Aminopeptidase N = target: T5, Aminopeptidase N (Plasmodium falciparum FcB1/Columbia, UniProt O96935); assay: P. falciparum M1AAP inhibitors, biochemical, fluorogenic H-Leu-NHMec substrate, 1536-well (AID 1445); design: species or system Plasmodium falciparum 3D7, 3D7
T5 sequence (O96935 whole entry): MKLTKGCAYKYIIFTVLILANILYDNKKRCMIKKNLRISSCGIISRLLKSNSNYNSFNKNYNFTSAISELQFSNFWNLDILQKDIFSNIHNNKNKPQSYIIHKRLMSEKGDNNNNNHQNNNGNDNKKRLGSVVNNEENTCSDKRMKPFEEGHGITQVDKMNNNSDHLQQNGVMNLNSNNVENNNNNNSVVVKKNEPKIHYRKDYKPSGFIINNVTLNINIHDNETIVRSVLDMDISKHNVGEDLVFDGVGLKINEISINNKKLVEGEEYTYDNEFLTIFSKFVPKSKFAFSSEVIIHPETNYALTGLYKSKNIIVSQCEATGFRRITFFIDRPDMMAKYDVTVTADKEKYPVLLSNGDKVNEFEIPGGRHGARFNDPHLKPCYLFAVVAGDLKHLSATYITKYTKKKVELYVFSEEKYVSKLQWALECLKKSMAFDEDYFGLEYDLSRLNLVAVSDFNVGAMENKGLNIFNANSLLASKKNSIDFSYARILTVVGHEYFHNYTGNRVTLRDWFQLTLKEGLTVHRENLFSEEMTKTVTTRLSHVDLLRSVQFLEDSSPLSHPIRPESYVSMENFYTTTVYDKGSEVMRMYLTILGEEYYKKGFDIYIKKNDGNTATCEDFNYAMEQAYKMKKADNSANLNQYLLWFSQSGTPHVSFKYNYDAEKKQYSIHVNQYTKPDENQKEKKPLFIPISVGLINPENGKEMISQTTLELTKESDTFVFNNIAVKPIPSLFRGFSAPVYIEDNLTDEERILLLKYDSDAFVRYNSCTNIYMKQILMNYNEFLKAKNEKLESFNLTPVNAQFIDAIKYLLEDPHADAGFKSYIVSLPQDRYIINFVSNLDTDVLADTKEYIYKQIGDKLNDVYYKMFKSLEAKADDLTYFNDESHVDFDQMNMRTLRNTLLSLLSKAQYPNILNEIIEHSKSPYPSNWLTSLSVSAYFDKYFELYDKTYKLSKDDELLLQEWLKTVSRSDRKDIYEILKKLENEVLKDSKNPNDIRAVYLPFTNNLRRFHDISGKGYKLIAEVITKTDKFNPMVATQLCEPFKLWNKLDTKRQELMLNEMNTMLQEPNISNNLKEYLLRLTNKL

[10] = target: T6, Carboxy-terminal domain RNA polymerase II polypeptide A small phosphatase 1 (Homo sapiens, UniProt Q9GZU7); assay: inhibitors of CTDSP1, concentration-response testing, biochemical assay, absorbance-based, actives from ultra-high-throughput screening (AID 540297); type: functional
T6 sequence (Q9GZU7 whole entry): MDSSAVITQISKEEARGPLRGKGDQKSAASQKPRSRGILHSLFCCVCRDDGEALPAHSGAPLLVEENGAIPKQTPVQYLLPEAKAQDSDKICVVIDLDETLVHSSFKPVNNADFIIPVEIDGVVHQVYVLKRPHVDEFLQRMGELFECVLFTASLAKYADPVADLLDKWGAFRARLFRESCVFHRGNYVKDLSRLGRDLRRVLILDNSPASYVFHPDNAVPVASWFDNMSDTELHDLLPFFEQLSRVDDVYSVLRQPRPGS

CCOc1cc(Br)cc(/C=C2\SC(Nc3ccccc3)=NC2=O)c1O
IC50 [1]: 35.1 µM (not active)
IC50 (Insulin-degrading enzyme): 12.7 µM (not active)
IC50 [2]: 5.76 µM (active)
IC50 [3]: 1.18 µM (active)

O=C(/C=C/c1ccc(F)cc1)N1CCN(c2ncccn2)CC1
IC50 (Beta-galactosidase): > 80 µM (inactive)

Oc1ccc(-c2csc(Nc3cccc4ccccc34)n2)cc1O
IC50 (Large T antigen): 66.2 µM (active)
IC50 [4]: 1.63 µM (active)
IC50 [5]: 78 µM (active)
IC50 [6]: 3.36 µM (active)
CC50 (Vero): > 40 µM (active)
IC50 (Genome polyprotein): > 100 µM (active)
AC50 [7]: 1.58 µM (active)
AC50 [8]: 7.93 µM (active)
AC50 (Caspase-6): 14.1 µM (active)
AC50 [9]: 10.5 µM (active)

Cc1ccc(S(=O)(=O)NC2=NC(=O)/C(=C/c3ccc(Br)o3)S2)cc1
IC50 (Aminopeptidase N): 42.1 µM (active)
IC50 [10]: 7.47 µM (active)
AC50 [9]: 14.1 µM (active)
